{"source": "paper PMC7451656", "about": "“In vitro and in vivo growth inhibitory activities of cryptolepine hydrate against several Babesia species and Theileria equi” (PLoS Neglected Tropical Diseases, 2020)", "assay": "Hematology profiles, body weight and adverse effects of treated B. microti-infected mice", "type": "in vivo", "conditions": "CRY administered i.p.", "procedure": "The promising effect of CRY in vitro encouraged us to evaluate its in vivo effects against B. microti in mice. The assay was conducted in accordance with the previously described protocol. In two separate trials, 35 female 8-week-old BALB/c mice, housed under a pathogen-free environment with controlled humidity, temperature (22°C) and a 12 h light/ dark cycle were caged in seven groups, each group consisting of five mice. Six groups were i.p. injected with 0.5 ml of inoculum (1×10^7 B. microti iRBCs), while the seventh group was left uninfected and untreated to act as a negative control. When the average parasitemia in all infected mice reached approximately 1%, the 5-day drug treatment was initiated. […] Parasitemia and hematology profiles (RBCs, hemoglobin (HGB), and HCT) were monitored every 2 and 4 days by microscopic examination and hematology analyzer (Celltac α MEK-6450, Nihon Kohden Corporation, Tokyo, Japan), respectively. […]\nThe IC50 values of CRY, DA, CF, and AQ were determined using the nonlinear regression curve fit in GraphPad Prism (GraphPad Software Inc., San Diego, CA, USA). Combination index (CI) values for the drug combination were calculated using CompuSyn software, and the degree of synergism was determined as the weighted average of CI values using a formula [(1 x IC50) + (2 x IC75) + (3 x IC90) + (4 x IC95)]/10 [30]. […]", "data": [{"smiles": "Cn1c2c3ccccc3nc-2cc2ccccc21", "note": "[CRY, Cryptolepine hydrate]", "values": [{"measurement": "adverse effects in mice", "result": "no apparent adverse effects"}]}]}
